Laboratory results as given in article PMC11742280, “A phase I study of MLN4924 and belinostat in relapsed/refractory acute myeloid leukemia or myelodysplastic syndrome” (Cancer Chemotherapy and Pharmacology, 2025).
Where two headings read alike, the source gives them in different places.

Key:
AML = system: AML; parameters: method as in PMID 25733005; conditions: cited from earlier work
[1] = parameters: method as in PMID 31097586, PMID 33441097; conditions: e.g. value, compared with clinical Cmax; cited from earlier work
[2] = system: xenograft models of solid tumors, lymphoma, and AML; parameters: method as in PMID 20203261, PMID 20525923, PMID 23633453, PMID 22562464; conditions: cited from earlier work
high-risk MDS = system: high-risk MDS; parameters: method as in PMID 35728048; conditions: pevonedistat 20 mg/m^2 D1,3,5 in combination with azacitidine; subset with high-risk MDS, post-hoc analysis, non-statistically significant improvement; cited from earlier work
[3] = Plasma pharmacokinetics of pevonedistat (LC/MS/MS, noncompartmental analysis); type: in vivo, human; conditions: for Cmax: read-out: preEOI Cmax (peak plasma concentration); for clearance: read-out: Cl (systemic clearance) (converted)
Procedure: Plasma was stored at − 80 °C until analysis.
Pharmacokinetic parameters were summarized using descriptive statistics.

[4] = cycle 1 day 1, dose level 1, pevonedistat 20 mg/m^2 IV (belinostat 800 mg/m^2), n=2, actual values
[5] = human, plasma, iv, 37 mg/m2, cycle 1 day 1, pevonedistat 37 mg/m^2 IV, all 37 mg/m^2 patients (dose levels 3-4), mean±SD, n=6
[6] = human, plasma, iv, cycle 1 day 1, dose level 1, pevonedistat 20 mg/m^2 IV (belinostat 800 mg/m^2), n=2, actual values
[7] = human, plasma, iv, cycle 1 day 1, dose level 2, pevonedistat 25 mg/m^2 IV (belinostat 800 mg/m^2), mean±SD, n=3
[8] = human, plasma, iv, cycle 1 day 1, dose level 3, pevonedistat 37 mg/m^2 IV (belinostat 800 mg/m^2), mean±SD, n=3
[9] = human, plasma, iv, cycle 1 day 1, dose level 4, pevonedistat 37 mg/m^2 IV (belinostat 1000 mg/m^2), mean±SD, n=3

NS(=O)(=O)OC[C@@H]1C[C@@H](n2ccc3c(N[C@H]4CCc5ccccc54)ncnc32)C[C@@H]1O [Pevonedistat]
Complete remission (CR) + partial remission (PR) (AML; single agent in AML): 17%
Maximum Tolerated Dose (AML; single agent, D1,3,5 dosing schedule in a 21-day cycle): 59 mg/m^2
Concentrations shown to exert activity in preclinical studies [1]: 100 to 200 nM
Effect on tumor growth [2]: inhibition of tumor growth
Survival (high-risk MDS): 23.8 mos
Pevonedistat AUCINF by BSA-based dose ([3]; 37 mg/m^2 compared with 20 or 25 mg/m^2, p = 0.02, Kruskal–Wallis): significantly higher
AUCINF [3, 4]: 2.85 µM·h
Cl (systemic clearance) [3, 4]: 28.5 L/h
T1/2 [3, 4]: 6.12 h
Cmax [3, 4]: 311 nM
Cl (systemic clearance) ([3]; cycle 1 day 1, dose level 3, pevonedistat 37 mg/m^2 IV (belinostat 800 mg/m^2), mean±SD, n=3): 34.9 ± 2.9 (3) L/hr
Cl (systemic clearance) ([3]; cycle 1 day 1, dose level 4, pevonedistat 37 mg/m^2 IV (belinostat 1000 mg/m^2), mean±SD, n=3): 35.5 ± 8.3 (3) L/hr
Cl (systemic clearance) ([3]; cycle 1 day 1, pevonedistat 37 mg/m^2 IV, all 37 mg/m^2 patients (dose levels 3-4), mean±SD, n=6): 35.2 ± 5.6 (6) L/hr
Pharmacokinetic parameters compared between dose levels ([3]; dose levels 1-4, Kruskal–Wallis): not different by dose level
AUC(0-inf) [3, 5]: 4.78 ± 0.958 µM·h
half-life [3, 5]: 5.79 ± 0.99 h
Cmax [3, 5]: 869 ± 290 nM
Tmax ([3]; human, plasma, iv, 37 mg/m2, cycle 1 day 1, pevonedistat 37 mg/m^2 IV, all 37 mg/m^2 patients (dose levels 3-4), median (range; n)): 0.9 h
AUC(0-inf) [3, 6]: 2.28 µM·h
Tmax [3, 6]: 0.4 h
half-life [3, 6]: 5.89 h
clearance [3, 6]: 627 mL/min
Cmax [3, 6]: 278 nM
AUC(0-inf) [3, 7]: 2.95 ± 0.666 µM·h
half-life [3, 7]: 6.52 ± 1.38 h
clearance [3, 7]: 625 mL/min
Cmax [3, 7]: 372 ± 93.2 nM
Tmax ([3]; human, plasma, iv, cycle 1 day 1, dose level 2, pevonedistat 25 mg/m^2 IV (belinostat 800 mg/m^2), median (range; n)): 0.6 h
AUC(0-inf) [3, 8]: 4.95 ± 0.426 µM·h
half-life [3, 8]: 5.97 ± 0.34 h
Cmax [3, 8]: 897 ± 26 nM
Tmax ([3]; human, plasma, iv, cycle 1 day 1, dose level 3, pevonedistat 37 mg/m^2 IV (belinostat 800 mg/m^2), median (range; n)): 0.9 h
AUC(0-inf) [3, 9]: 4.6 ± 1.42 µM·h
half-life [3, 9]: 5.61 ± 1.5 h
Cmax [3, 9]: 841 ± 455 nM
Tmax ([3]; human, plasma, iv, cycle 1 day 1, dose level 4, pevonedistat 37 mg/m^2 IV (belinostat 1000 mg/m^2), median (range; n)): 1 h
